Values of other authors, collected in patent publication US5093372A, “Novel pharmaceutical composition comprising exifone and water-soluble polymer” (Fujisawa Pharmaceutical Co. Inc., priority 1987, dated 1992).

How the values were obtained:
[1] = orally administered as a conventional pharmaceutical composition

Structure (SMILES): O=C(c1cc(O)c(O)c(O)c1)c1ccc(O)c(O)c1O [exifone]
- absorption into blood circulation (in words) [1]: poor
- bioavailability (in words) [1]: low
- solubility in water (in words): sparingly soluble in water
- saturated solubility in water (about): 70 to 80 µg/mL
